According to patent US20100160294A1 (Cypress Biosciences, Inc., priority 2008, published 2010):

How the values were obtained:
[1] = Example 4: tolerability study of mirtazapine and betahistine in normal healthy subjects; type: in vivo, human; conditions: 6 weeks; 15 mg mirtazapine in the evening, 8 mg betahistine in the morning, or 8 or 16 mg betahistine + 15 mg mirtazapine
Protocol: (§1) The subjects receive 2 capsules per day, one in the morning and one at bedtime. […] All medications are administered in an over-encapsulated format that ensures blinding of study participants, staff and investigators. All subjects are scheduled to receive a total of 6 weeks of therapy, and are required to return to the clinics after 1, 2, 4 and 6 weeks of therapy. Patients are required to complete paper self-assessments, electronic diary assessments, computer based cognitive testing, as well as vital signs and weight assessments at the clinic visits.

[2] = Example 1: tolerability study of mirtazapine and reboxetine in normal healthy subjects; type: in vivo, human; conditions: 6 weeks; 15 mg mirtazapine in the evening, 2 mg reboxetine in the morning, or 2 or 4 mg reboxetine + 15 mg mirtazapine
Protocol: as §1

[3] = tested on: 5-HT and NA reuptake sites; conditions: ratio of Ki for serotonin reuptake to Ki for norepinephrine reuptake; from U.S. Pat. No. 6,642,235; cited from earlier work
[4] = cited from earlier work

CCOc1ccccc1OC(c1ccccc1)C1CNCCO1 (racemic) [reboxetine, 2-[(2-ethoxyphenoxy)-phenyl-methyl]morpholine]
side effects [1]: insomnia, nausea/vomiting, and weight loss
side effects [2]: insomnia, nausea/vomiting, and weight loss
norepinephrine reuptake inhibitor selectivity (Ki5HT/KiNA) [3]: about 80

CN(C)CCC=C1c2ccccc2CCc2ccccc21 [amitriptyline]
appetite increase reported, share of patients ([4]; controlled studies, placebo 2%): 6%
weight gain of greater than or equal to 7% of body weight, share of patients ([4]; same controlled trials, placebo 0%): 5.9%

CNCCc1ccccn1 [betahistine, 2-[2-(methylamino)ethyl]pyridine]
side effects [1]: insomnia, nausea/vomiting, and weight loss

CN1CCN2c3ncccc3Cc3ccccc3C2C1 (stereo not drawn) [mirtazapine, 1,2,3,4,10,14b-hexahydro-2-methylpyrazino [2,1-a]pyrido[2,3-c]benzazepine]
side effects [1]: weight gain, sedation, and cognitive deficits
side effects [2]: weight gain, sedation, and cognitive deficits

(S,S)reboxetine
norepinephrine reuptake inhibitor selectivity (Ki5HT/KiNA) [3]: about 12,700
